Assay results reported in ChEMBL document CHEMBL5316381, “Discovery of [1,2,3]Triazolo[4,5-c]quinoline Derivatives as a New Class of Ataxia-Telangiectasia Mutated Kinase Inhibitors” (ACS Med Chem Lett, 2023).
Active and inactive are the calls of the source. The rule behind the calls is not given here.

What was measured:
[1] = molecular target: T1, Serine-protein kinase ATM (Homo sapiens, UniProt Q13315); assay: Inhibition of ATM (unknown origin) using GST-cMyc-p53 as substrate incubated for 30 mins in presence of Mg/ATP mix by HTRF-based analysis
SW-620 [2] = assay: Induction of apoptosis in human SW620 cells assessed as necrotic cells at 1 uM measured after 72 hrs by Annexin V-FITC staining based flow cytometric analysis (reference value: 5.83%); format: functional
SW-620 [3] = assay: Anticancer activity against human SW620 cells assessed as reduction in cell viability incubated for 5 days by MTT assay; format: functional, cell-based; details: SW-620, 120 h
SW-620 [4] = assay: Cell cycle arrest in human SW620 cells assessed as accumulation of cells at G2/M phase at 1 uM incubated for 24 hrs by PI staining based flow cytometric analysis; format: functional
SW-620 [5] = assay: Induction of apoptosis in human SW620 cells assessed as viable cells at 1 uM measured after 72 hrs by Annexin V-FITC staining based flow cytometric analysis (reference value: 87.36%); format: functional; details: read-out: Activity
[6] = molecular target: T1, Serine-protein kinase ATM; assay: Inhibition of ATM in human SW620 cells assessed as increase in gamma H2AX foci at 1 uM incubated for 24 hrs by confocal microscopic analysis; format: cell-based
SW-620 [7] = assay: Induction of apoptosis in human SW620 cells assessed as early apoptotic cells at 1 uM measured after 72 hrs by Annexin V-FITC staining based flow cytometric analysis (reference value: 1.06%); format: functional
SW-620 [8] = assay: Induction of apoptosis in human SW620 cells assessed as late apoptotic cells at 1 uM measured after 72 hrs by Annexin V-FITC staining based flow cytometric analysis (reference value: 5.75%); format: functional
HCT-116 = assay: Anticancer activity against human HCT-116 cells assessed as reduction in cell viability incubated for 5 days by MTT assay; format: functional, cell-based; details: HCT-116, 120 h
[9] = molecular target: Serine/threonine-protein kinase Chk2 (Homo sapiens) (UniProt O96017); assay: Inhibition of Chk2 phosphorylation in human SW620 cells with IR-induced DNA damage assessed as fold change in phosphorylated Chk2 protein level at 9 nM in the presence of 3 Gy irradiation by Western blot analysis relative to control; format: cell-based
[10] = molecular target: Serine/threonine-protein kinase Chk2 (Homo sapiens) (UniProt O96017); assay: Inhibition of Chk2 phosphorylation in human SW620 cells with IR-induced DNA damage assessed as fold change in phosphorylated Chk2 protein level at 250 nM in the presence of 1.5 Gy irradiation by Western blot analysis relative to control; format: cell-based
[11] = molecular target: Serine/threonine-protein kinase Chk2 (Homo sapiens) (UniProt O96017); assay: Inhibition of Chk2 phosphorylation in human SW620 cells with IR-induced DNA damage assessed as fold change in phosphorylated Chk2 protein level at 27 nM in the presence of 1.5 Gy irradiation by Western blot analysis relative to control; format: cell-based
[12] = molecular target: T1, Serine-protein kinase ATM; assay: Inhibition of ATM phosphorylation in human SW620 cells with IR-induced DNA damage assessed as fold change in phosphorylated ATM protein level at 3 nM in the presence of 3 Gy irradiation by Western blot analysis relative to control; format: cell-based
[13] = molecular target: Serine/threonine-protein kinase Chk2 (Homo sapiens) (UniProt O96017); assay: Inhibition of Chk2 phosphorylation in human SW620 cells with IR-induced DNA damage assessed as fold change in phosphorylated Chk2 protein level at 250 nM in the presence of 3 Gy irradiation by Western blot analysis relative to control; format: cell-based
[14] = molecular target: Serine/threonine-protein kinase Chk2 (Homo sapiens) (UniProt O96017); assay: Inhibition of CPT-11 induced Chk2 phosphorylation in human SW620 cells assessed as fold change in phosphorylated chk2 protein level at 3 nM by SDS-PAGE based Western blot analysis relative to control; format: cell-based
[15] = molecular target: T1, Serine-protein kinase ATM; assay: Inhibition of ATM phosphorylation in human SW620 cells with IR-induced DNA damage assessed as fold change in phosphorylated ATM protein level at 83 nM in the presence of 3 Gy irradiation by Western blot analysis relative to control; format: cell-based
SW-620 [16] = assay: Radiosensitizing activity against human SW620 cells assessed as reduction in colony formation at 9 nM incubated after 14 days in the presence of 1.5 Gy irradiation by crystal violet staining based analysis; format: functional, cell-based; details: time 14.0 day
[17] = molecular target: T1, Serine-protein kinase ATM; assay: Inhibition of ATM phosphorylation in human SW620 cells with IR-induced DNA damage assessed as fold change in phosphorylated ATM protein level at 27 nM in the presence of 3 Gy irradiation by Western blot analysis relative to control; format: cell-based
[18] = molecular target: Serine/threonine-protein kinase Chk2 (Homo sapiens) (UniProt O96017); assay: Inhibition of CPT-11 induced Chk2 phosphorylation in human SW620 cells assessed as fold change in phosphorylated chk2 protein level at 1 nM by SDS-PAGE based Western blot analysis relative to control; format: cell-based
[19] = molecular target: Serine/threonine-protein kinase Chk2 (Homo sapiens) (UniProt O96017); assay: Inhibition of Chk2 phosphorylation in human SW620 cells with IR-induced DNA damage assessed as fold change in phosphorylated Chk2 protein level at 27 nM in the presence of 3 Gy irradiation by Western blot analysis relative to control; format: cell-based
[20] = molecular target: Serine/threonine-protein kinase Chk2 (Homo sapiens) (UniProt O96017); assay: Inhibition of Chk2 phosphorylation in human SW620 cells with IR-induced DNA damage assessed as fold change in phosphorylated Chk2 protein level at 3 nM in the presence of 1.5 Gy irradiation by Western blot analysis relative to control; format: cell-based
[21] = molecular target: Serine/threonine-protein kinase Chk2 (Homo sapiens) (UniProt O96017); assay: Inhibition of Chk2 phosphorylation in human SW620 cells with IR-induced DNA damage assessed as fold change in phosphorylated Chk2 protein level at 3 nM in the presence of 3 Gy irradiation by Western blot analysis relative to control; format: cell-based
SW-620 [22] = assay: Antiproliferative activity against human SW620 cells assessed as reduction in colony formation at 9 nM measured after 14 days by crystal violet staining based microscopic analysis; format: functional, cell-based; details: time 14.0 day
[23] = molecular target: Serine/threonine-protein kinase Chk2 (Homo sapiens) (UniProt O96017); assay: Inhibition of CPT-11 induced Chk2 phosphorylation in human SW620 cells assessed as fold change in phosphorylated chk2 protein level at 10 nM by SDS-PAGE based Western blot analysis relative to control; format: cell-based
[24] = molecular target: Serine/threonine-protein kinase Chk2 (Homo sapiens) (UniProt O96017); assay: Inhibition of Chk2 phosphorylation in human SW620 cells with IR-induced DNA damage assessed as fold change in phosphorylated Chk2 protein level at 83 nM in the presence of 3 Gy irradiation by Western blot analysis relative to control; format: cell-based
[25] = molecular target: Serine/threonine-protein kinase Chk2 (Homo sapiens) (UniProt O96017); assay: Inhibition of Chk2 phosphorylation in human SW620 cells with IR-induced DNA damage assessed as fold change in phosphorylated Chk2 protein level at 83 nM in the presence of 1.5 Gy irradiation by Western blot analysis relative to control; format: cell-based
[26] = molecular target: Serine/threonine-protein kinase Chk2 (Homo sapiens) (UniProt O96017); assay: Inhibition of CPT-11 induced Chk2 phosphorylation in human SW620 cells by SDS-PAGE based Westernblot analysis; format: cell-based
[27] = molecular target: T1, Serine-protein kinase ATM; assay: Inhibition of ATM phosphorylation in human SW620 cells with IR-induced DNA damage assessed as fold change in phosphorylated ATM protein level at 250 nM in the presence of 3 Gy irradiation by Western blot analysis relative to control; format: cell-based
SW-620 [28] = assay: Antiproliferative activity against human SW620 cells assessed as reduction in colony formation at 27 nM measured after 14 days by crystal violet staining based microscopic analysis; format: functional, cell-based; details: time 14.0 day
[29] = molecular target: Serine/threonine-protein kinase Chk2 (Homo sapiens) (UniProt O96017); assay: Inhibition of CPT-11 induced Chk2 phosphorylation in human SW620 cells assessed as fold change in phosphorylated chk2 protein level at 30 nM by SDS-PAGE based Western blot analysis relative to control; format: cell-based
[30] = molecular target: Serine/threonine-protein kinase Chk2 (Homo sapiens) (UniProt O96017); assay: Inhibition of Chk2 phosphorylation in human SW620 cells with IR-induced DNA damage assessed as fold change in phosphorylated Chk2 protein level at 9 nM in the presence of 1.5 Gy irradiation by Western blot analysis relative to control; format: cell-based
SW-620 [31] = assay: Radiosensitizing activity against human SW620 cells assessed as reduction in colony formation at 27 nM incubated after 14 days in the presence of 3 Gy irradiation by crystal violet staining based analysis; format: functional, cell-based; details: time 14.0 day
SW-620 [32] = assay: Radiosensitizing activity against human SW620 cells assessed as reduction in colony formation at 27 nM incubated after 14 days in the presence of 1.5 Gy irradiation by crystal violet staining based analysis; format: functional, cell-based; details: time 14.0 day
SW-620 [33] = assay: Radiosensitizing activity against human SW620 cells assessed as reduction in colony formation at 9 nM incubated after 14 days in the presence of 3 Gy irradiation by crystal violet staining based analysis; format: functional, cell-based; details: time 14.0 day
[34] = molecular target: T1, Serine-protein kinase ATM; assay: Inhibition of ATM phosphorylation in human SW620 cells with IR-induced DNA damage assessed as fold change in phosphorylated ATM protein level at 9 nM in the presence of 3 Gy irradiation by Western blot analysis relative to control; format: cell-based

Serine/threonine-protein kinase Chk2 (Homo sapiens), sequence (O96017 whole entry): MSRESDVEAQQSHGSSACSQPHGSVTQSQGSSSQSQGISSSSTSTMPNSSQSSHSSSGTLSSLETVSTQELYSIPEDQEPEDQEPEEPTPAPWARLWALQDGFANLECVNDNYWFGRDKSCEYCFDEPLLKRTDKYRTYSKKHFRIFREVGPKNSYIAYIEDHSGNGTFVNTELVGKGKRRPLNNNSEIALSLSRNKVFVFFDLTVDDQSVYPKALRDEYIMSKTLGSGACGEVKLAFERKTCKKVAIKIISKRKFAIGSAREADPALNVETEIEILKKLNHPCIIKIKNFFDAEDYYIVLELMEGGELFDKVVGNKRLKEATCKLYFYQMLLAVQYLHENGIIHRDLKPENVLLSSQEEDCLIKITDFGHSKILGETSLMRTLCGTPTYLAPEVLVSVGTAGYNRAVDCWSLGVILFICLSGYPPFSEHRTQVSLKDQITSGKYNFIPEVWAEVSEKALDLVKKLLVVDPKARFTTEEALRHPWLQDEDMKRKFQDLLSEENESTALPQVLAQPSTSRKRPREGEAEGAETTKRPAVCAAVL
T1 sequence (Q13315 whole entry): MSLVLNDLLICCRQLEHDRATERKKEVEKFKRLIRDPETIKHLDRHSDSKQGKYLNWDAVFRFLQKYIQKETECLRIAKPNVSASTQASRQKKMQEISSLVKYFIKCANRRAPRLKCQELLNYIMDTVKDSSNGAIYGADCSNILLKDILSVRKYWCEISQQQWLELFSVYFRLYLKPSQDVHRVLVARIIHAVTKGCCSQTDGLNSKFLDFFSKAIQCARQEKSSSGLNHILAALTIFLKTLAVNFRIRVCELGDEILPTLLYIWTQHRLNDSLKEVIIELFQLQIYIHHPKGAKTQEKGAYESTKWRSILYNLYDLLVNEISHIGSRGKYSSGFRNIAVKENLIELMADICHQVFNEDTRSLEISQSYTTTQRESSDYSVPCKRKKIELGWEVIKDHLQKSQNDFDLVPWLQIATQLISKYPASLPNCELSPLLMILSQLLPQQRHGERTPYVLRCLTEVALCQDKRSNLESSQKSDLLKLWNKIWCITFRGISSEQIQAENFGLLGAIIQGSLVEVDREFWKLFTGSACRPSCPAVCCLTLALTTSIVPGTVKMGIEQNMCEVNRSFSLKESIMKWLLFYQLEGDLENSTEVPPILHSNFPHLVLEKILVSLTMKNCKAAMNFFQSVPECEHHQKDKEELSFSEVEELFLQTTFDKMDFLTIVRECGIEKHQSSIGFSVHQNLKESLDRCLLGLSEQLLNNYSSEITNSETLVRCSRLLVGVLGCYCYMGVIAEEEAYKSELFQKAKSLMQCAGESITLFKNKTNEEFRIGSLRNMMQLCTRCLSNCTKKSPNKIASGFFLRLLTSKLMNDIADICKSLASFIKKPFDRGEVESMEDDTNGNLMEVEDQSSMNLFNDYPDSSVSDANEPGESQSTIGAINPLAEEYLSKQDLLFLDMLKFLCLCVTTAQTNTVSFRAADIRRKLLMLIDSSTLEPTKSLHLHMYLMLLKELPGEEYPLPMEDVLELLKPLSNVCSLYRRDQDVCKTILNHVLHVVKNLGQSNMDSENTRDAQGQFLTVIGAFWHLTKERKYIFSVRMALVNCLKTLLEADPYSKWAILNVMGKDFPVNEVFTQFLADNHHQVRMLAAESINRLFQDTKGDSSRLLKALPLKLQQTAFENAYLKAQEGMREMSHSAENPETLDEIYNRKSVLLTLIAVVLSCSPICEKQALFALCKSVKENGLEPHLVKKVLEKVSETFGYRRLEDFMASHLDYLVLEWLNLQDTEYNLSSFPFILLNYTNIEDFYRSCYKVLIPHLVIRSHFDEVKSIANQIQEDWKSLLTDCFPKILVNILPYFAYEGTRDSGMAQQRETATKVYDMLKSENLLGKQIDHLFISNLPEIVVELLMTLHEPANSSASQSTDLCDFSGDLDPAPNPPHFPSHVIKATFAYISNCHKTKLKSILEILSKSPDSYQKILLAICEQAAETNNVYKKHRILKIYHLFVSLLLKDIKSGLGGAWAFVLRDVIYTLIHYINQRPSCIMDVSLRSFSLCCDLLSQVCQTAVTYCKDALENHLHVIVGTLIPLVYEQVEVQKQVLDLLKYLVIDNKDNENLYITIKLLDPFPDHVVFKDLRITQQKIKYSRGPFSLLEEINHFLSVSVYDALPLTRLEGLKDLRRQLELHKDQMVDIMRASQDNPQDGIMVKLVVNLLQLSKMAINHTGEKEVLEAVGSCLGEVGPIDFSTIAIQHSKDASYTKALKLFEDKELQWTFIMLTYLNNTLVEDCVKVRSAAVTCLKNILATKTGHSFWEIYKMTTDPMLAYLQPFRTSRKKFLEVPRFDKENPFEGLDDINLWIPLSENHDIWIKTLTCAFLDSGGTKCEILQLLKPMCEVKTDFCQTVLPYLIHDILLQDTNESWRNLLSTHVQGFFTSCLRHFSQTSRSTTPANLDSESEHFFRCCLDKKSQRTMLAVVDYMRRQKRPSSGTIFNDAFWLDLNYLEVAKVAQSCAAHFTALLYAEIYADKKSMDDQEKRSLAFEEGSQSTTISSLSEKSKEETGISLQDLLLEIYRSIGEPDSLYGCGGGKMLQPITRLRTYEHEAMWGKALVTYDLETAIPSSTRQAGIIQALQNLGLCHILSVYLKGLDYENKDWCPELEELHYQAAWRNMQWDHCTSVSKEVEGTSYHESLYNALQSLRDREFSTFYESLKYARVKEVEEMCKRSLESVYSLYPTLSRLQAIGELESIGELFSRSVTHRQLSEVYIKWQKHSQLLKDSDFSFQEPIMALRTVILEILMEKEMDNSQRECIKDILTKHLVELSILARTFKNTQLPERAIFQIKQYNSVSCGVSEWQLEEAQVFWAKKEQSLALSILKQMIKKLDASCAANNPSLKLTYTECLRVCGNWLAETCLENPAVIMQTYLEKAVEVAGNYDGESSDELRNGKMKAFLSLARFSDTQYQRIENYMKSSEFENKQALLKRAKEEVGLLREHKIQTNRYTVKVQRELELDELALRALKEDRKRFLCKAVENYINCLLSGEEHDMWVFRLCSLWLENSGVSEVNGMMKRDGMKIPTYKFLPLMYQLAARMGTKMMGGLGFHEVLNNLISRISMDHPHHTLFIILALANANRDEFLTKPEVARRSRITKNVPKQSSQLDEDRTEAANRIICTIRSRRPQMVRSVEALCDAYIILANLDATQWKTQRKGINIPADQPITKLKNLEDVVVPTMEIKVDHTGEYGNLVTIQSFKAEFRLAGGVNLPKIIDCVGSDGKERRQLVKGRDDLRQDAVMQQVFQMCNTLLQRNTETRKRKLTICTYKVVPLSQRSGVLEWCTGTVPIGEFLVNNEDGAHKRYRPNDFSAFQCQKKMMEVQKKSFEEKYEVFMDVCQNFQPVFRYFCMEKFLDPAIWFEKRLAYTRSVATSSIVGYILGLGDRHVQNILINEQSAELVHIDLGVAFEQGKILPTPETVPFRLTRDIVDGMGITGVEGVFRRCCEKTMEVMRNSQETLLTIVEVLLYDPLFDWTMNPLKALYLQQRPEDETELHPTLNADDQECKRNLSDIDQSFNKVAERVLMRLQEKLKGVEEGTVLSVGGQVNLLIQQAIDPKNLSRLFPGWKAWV

`C[C@H](c1ccccc1)n1nnc2cnc3ccc(-c4ccc(Cl)nc4)cc3c21` gave an IC50 [1] of 31 nM.
For `C[C@H](c1ccccc1)n1nnc2cnc3ccc(-c4ccc(F)nc4)cc3c21`, the IC50 [1] was 57 nM.
With `C[C@H](c1ccccc1)n1nnc2cnc3ccc(-c4ccc(OCCCCN(C)C)nc4)cc3c21` the IC50 [1] was 10 nM.
In the case of `C[C@H](c1ccccc1)n1nnc2cnc3ccc(-c4ccc(O)cc4)cc3c21`, the IC50 [1] is reported as 52 nM.
`C[C@H](c1ccccc1)n1nnc2cnc3ccc(-c4ccc(C(F)(F)F)nc4)cc3c21` was tested, and the IC50 [1] was 225 nM.
With `C[C@H](c1ccccc1)n1nnc2cnc3ccc(-c4ccc(C#N)nc4)cc3c21` the IC50 [1] was 167 nM.
Work on `CC(C)n1nnc2cnc3ccc(-c4ccc(N)nc4)cc3c21` yielded an IC50 [1] of 20 nM.
`CC[C@@H](c1ccccc1)n1nnc2cnc3ccc(-c4ccc(N)nc4)cc3c21` showed an IC50 [1] of 79 nM.
In the case of `C[C@H](c1ccccc1)n1nnc2cnc3ccc(-c4ccc(F)cc4)cc3c21`, the IC50 [1] is reported as 174 nM.
`CC(=O)Nc1ccc(-c2ccc3ncc4nnn([C@H](C)c5ccccc5)c4c3c2)cn1` showed an IC50 [1] of 13 nM.
In the case of `CCc1c2c(nc3ccc(OC(=O)N4CCC(N5CCCCC5)CC4)cc13)-c1cc3c(c(=O)n1C2)COC(=O)[C@]3(O)CC` [IRINOTECAN], the Activity (SW-620 [2]) is reported as 6.2%, the IC50 (SW-620 [3]) is reported as 140 nM and the Activity (SW-620 [4]) is reported as “Active”. The viability at 1 µM (SW-620 [5]) was 67.3%, the inhibition [6] was “Active” and the Activity (SW-620 [7]) was 4.61%. It also gave an Activity (SW-620 [8]) of 21.89% and an IC50 (HCT-116) of 910 nM.
With `Cc1ccc(-c2ccc3ncc4nnn([C@H](C)c5ccccc5)c4c3c2)cn1` the IC50 [1] was 35 nM.
`CC(C)n1c(=O)n(C)c2cnc3cc(F)c(-c4ccc(OCCCN5CCCCC5)nc4)cc3c21` was tested, and the fold change (FC) [9] was 1.8, the fold change (FC) [10] was 0.58 and the fold change (FC) [11] was 1.2. For the same compound, the fold change (FC) [12] was 1.36, the fold change (FC) [13] was 0.25 and the fold change (FC) [14] was 1.9. For the same compound, the fold change (FC) [15] was 0.8, the Activity (SW-620 [16]) was “Active” and the fold change (FC) [17] was 1. For the same compound, the fold change (FC) [18] was 2.5, the fold change (FC) [19] was 0.6 and the fold change (FC) [20] was 0.92. For the same compound, the fold change (FC) [21] was 4.2, the Activity (SW-620 [22]) was “inactive” and the fold change (FC) [23] was 1.6. The fold change (FC) [24] was 0.35, the fold change (FC) [25] was 1 and the inhibition [26] was “Dose-Dependent Effect”. For the same compound, the fold change (FC) [27] was 0.61, the Activity (SW-620 [28]) was “inactive” and the fold change (FC) [29] was 0.56. For the same compound, the fold change (FC) [30] was 0.92, the Activity (SW-620 [31]) was “Active” and the Activity (SW-620 [32]) was “Active”. For the same compound, the Activity (SW-620 [33]) was “Active” and the fold change (FC) [34] was 1.34.
`C[C@H](c1cccc(F)c1)n1nnc2cnc3ccc(-c4ccc(N)nc4)cc3c21` showed an IC50 [1] of 4 nM.
Work on `C[C@@H](c1ccc(F)cc1)n1nnc2cnc3ccc(-c4ccc(N)nc4)cc3c21` yielded an IC50 [1] of 250 nM.
`C[C@H](c1ccccc1)n1nnc2cnc3ccc(-c4ccc(N)nc4)cc3c21` was tested, and the IC50 [1] was 2 nM.
Compound `C[C@H](c1ccc(F)cc1)n1nnc2cnc3ccc(-c4ccc(N)nc4)cc3c21` has an IC50 [1] of 4 nM.
With `CNCCCOc1ccc(-c2ccc3ncc4nnn([C@H](C)c5ccccc5)c4c3c2)cn1` the IC50 [1] was 166 nM.
With `COc1ccc([C@H](C)n2nnc3cnc4ccc(-c5ccc(N)nc5)cc4c32)cc1` the IC50 [1] was 103 nM.
